One assay concerns the target IKZF2 (Homo sapiens, UniProt Q96SW2+Q9UKS7). In words: Prolabel quantification of IKZF2 protein levels in 293GT cells. The following applies: for inhibition at 10 µM: 24 h, read-out: IKZF2 % protein reduction at 10 µM, 24 h; for DC50: read-out: IKZF2 EC50, Helios (IKZF2) degradation, prolabel-tagged fusion protein in 293GT cells, highest concentration 50 µM.
For a further assay, the target named is IKZF1 (Homo sapiens, UniProt Q13422+Q96SW2). Nature of the assay: Prolabel quantification of IKZF1 protein levels in 293GT cells. As to conditions: read-out: IKZF1 EC50; Ikaros (IKZF1) degradation, prolabel-tagged fusion protein in 293GT cells; highest concentration 50 µM.

SMILES strings stand for the structures.

IKZF1, sequence (Q13422 whole entry, the tested form may be a part): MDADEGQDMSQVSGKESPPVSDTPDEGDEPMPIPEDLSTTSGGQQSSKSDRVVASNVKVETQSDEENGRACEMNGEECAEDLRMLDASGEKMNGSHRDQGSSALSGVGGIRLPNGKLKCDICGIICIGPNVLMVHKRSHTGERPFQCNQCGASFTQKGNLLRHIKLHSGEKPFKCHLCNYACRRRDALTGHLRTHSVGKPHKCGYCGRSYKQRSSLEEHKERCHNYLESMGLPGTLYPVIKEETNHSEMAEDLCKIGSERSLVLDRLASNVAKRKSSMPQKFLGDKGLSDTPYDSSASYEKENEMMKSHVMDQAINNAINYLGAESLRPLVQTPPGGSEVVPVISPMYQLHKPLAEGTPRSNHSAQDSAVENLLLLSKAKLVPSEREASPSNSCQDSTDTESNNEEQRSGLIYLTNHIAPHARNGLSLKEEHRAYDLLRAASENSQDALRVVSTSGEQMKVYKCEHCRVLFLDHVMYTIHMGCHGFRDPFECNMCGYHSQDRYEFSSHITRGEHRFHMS
IKZF1, sequence (Q96SW2 whole entry, the tested form may be a part): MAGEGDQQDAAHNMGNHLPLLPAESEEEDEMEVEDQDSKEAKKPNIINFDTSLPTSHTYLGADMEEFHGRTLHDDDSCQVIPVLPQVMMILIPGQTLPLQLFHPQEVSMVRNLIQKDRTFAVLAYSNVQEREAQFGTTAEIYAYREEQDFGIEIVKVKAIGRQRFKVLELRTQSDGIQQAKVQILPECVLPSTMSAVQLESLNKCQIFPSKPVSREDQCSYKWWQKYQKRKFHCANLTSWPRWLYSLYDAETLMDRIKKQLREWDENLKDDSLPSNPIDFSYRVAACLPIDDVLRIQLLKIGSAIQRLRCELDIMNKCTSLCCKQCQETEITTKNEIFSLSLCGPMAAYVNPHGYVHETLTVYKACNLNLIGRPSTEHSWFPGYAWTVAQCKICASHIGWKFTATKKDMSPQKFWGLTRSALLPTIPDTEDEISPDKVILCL
IKZF1, sequence (Q16531 whole entry partner, the tested form may be a part): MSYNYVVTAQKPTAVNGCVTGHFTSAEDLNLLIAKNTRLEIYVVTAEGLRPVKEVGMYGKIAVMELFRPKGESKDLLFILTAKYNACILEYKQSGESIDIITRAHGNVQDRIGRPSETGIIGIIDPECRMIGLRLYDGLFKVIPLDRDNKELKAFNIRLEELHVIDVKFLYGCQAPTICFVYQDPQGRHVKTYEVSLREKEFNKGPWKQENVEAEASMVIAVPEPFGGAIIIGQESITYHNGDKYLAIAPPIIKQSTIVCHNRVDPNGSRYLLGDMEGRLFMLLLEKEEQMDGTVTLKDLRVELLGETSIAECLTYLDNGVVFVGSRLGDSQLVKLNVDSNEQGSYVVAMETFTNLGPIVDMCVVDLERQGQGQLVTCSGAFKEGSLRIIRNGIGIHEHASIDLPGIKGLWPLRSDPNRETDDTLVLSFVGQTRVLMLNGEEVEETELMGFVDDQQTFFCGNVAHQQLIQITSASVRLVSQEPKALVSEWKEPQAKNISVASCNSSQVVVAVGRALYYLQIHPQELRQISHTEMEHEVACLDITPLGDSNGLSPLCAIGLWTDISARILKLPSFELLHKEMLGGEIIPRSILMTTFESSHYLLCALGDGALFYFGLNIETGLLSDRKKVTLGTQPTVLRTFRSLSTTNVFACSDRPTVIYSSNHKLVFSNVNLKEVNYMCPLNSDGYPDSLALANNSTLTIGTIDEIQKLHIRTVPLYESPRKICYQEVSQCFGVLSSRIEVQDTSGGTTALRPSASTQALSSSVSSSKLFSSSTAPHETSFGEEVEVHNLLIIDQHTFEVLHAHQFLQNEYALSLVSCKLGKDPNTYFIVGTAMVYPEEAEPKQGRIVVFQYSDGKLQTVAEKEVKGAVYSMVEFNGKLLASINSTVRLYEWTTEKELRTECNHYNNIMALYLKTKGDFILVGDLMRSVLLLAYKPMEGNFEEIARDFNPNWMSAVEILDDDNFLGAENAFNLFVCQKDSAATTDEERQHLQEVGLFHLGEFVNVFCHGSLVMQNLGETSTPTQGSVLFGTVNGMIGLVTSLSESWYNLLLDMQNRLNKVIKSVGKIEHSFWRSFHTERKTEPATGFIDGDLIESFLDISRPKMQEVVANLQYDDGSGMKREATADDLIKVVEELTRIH
IKZF2, sequence (Q9UKS7 whole entry, the tested form may be a part): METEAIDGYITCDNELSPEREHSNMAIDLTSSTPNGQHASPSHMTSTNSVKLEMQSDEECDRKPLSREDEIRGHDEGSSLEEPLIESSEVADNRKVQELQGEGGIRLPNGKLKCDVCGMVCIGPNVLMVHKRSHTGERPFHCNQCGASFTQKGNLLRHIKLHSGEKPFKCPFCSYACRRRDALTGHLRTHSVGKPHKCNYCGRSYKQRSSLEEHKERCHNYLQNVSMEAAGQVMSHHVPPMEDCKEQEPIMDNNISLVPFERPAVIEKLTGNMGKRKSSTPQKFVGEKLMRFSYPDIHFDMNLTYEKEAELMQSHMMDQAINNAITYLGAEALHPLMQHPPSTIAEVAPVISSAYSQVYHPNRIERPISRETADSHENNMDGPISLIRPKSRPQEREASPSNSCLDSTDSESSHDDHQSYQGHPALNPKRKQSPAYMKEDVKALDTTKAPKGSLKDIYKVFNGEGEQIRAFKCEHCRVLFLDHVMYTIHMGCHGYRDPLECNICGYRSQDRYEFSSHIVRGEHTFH
IKZF2, sequence (Q96SW2 whole entry, the tested form may be a part): as the sequence (Q96SW2 whole entry, the tested form may be a part) above
IKZF2, sequence (Q16531 whole entry partner, the tested form may be a part): as the sequence (Q16531 whole entry partner, the tested form may be a part) above
Protocol for IKZF1: (§1) The Prolabel system from DiscoverX was used to develop high-throughput and quantitative assays to measure changes in IKZF1, IKZF2, and GSPT1 protein levels in response to compounds. […] The complementary fragment of beta-galactosidase (from DiscoverX), is added to the prolabel tag to form an active beta galactosidase enzyme whose activity can be precisely measured. In this way, the levels of a fusion protein with the prolabel tag can be quantified in cell lysates.
(§2) Lentiviral vectors, based on the Invitrogen pLenti6.2/V5 DEST backbone, were constructed that placed the prolabel tag upstream of IKZF1, IKZF2, or GSPT1 and expressed the fusion protein from a CMV promoter.
(§3) To ensure moderate and consistent expression of the prolabel fusion proteins across all cells in the population, stable cell lines were constructed from cells expressing a single copy of the construct. Lentivirus packaged with the constructs was made using the Virapower kit from Invitrogen.
(§4) The levels of prolabel tagged fusion proteins in compound treated cell lines were measured as follows: • Day 1, Cells were diluted to 1.0 x 10^6 cells/ml in normal growth medium. 17.5 µL of cells were plated in each well of a solid white 384 well plate. Plates were incubated overnight in a 37 °C tissue culture incubator. • Day 2, Serial dilutions of compounds were made in 384 well plates from 10 mM stocks. 15 µL of DMSO was added to each well of a 384 well plate. In the first column 15µL of stock compound was added. The solution was mixed and 15 µL was transferred to the next column. This was repeated until 20 two-fold dilutions were prepared. 2.5 µL of diluted compounds were transferred into 60 µL of cell culture medium in another 384 well plate, and mixed well. 2.5 µL of this mixture was added to the plated cells. The final DMSO concentration was 0.5% and the highest concentration of compound was 50 µM. Plates were incubated overnight (e.g., about 14 h, 18 h, or 24 h) in a 37 °C tissue culture incubator. • Day 3, Plates were removed from the incubator and allowed to equilibrate at rt for 30 minutes. Prolabel substrate (DiscoverX PathHunter Prolabel Detection Kit, User manual: 93-0180) was added as described by the manufacturers protocols. Plates were incubated at rt for three hours and luminescence was read using an Envision reader (Perkin Elmer) Data was analyzed and visualized using the Spotfire software package.
Protocol for IKZF2: as §1, §2, §3, §4

`CN(c1ccc2c(c1)C(=O)N(C1CCC(=O)NC1=O)C2=O)[C@H]1CCCC[C@@H]1NCc1cccnc1` (stereo partly drawn) [Compound I-143, 2-(2,6-dioxopiperidin-3-yl)-5-(methyl((1S,2S)-2-((pyridin-3-ylmethyl)amino)cyclohexyl)amino)isoindoline-1,3-dione]: at IKZF2, the inhibition at 10 µM is 40% and the DC50 was determined as 23.1 µM. Besides, the DC50 on IKZF1 was above 30 µM.

Consider `N[C@H]1CCCC[C@@H]1Nc1ccc2c(c1)CN(C1CCC(=O)NC1=O)C2=O` (stereo partly drawn) [Compound I-7, 3-(5-(((1S,2S)-2-aminocyclohexyl)amino)-1-oxoisoindolin-2-yl)piperidine-2,6-dione], for which, at IKZF2, the inhibition at 10 µM is 30% and the DC50 was 0.183 µM. Moreover, on IKZF1, the DC50 was above 50 µM.

Consider `CN(c1ccc2c(c1)C(=O)N(C1CCC(=O)NC1=O)C2=O)[C@H]1CCCC[C@@H]1NCC(=O)O` (stereo partly drawn) [Compound I-148, ((1S,2S)-2-((2-(2,6-dioxopiperidin-3-yl)-1,3-dioxoisoindolin-5-yl)(methyl)amino)cyclohexyl)glycine], for which, at IKZF2, the inhibition at 10 µM came out at 40% and the DC50 was determined as 11.3 µM. The DC50 at IKZF1 was above 30 µM.

As to `CN(Cc1ccccc1)[C@H]1CCCC[C@@H]1N(C)c1ccc2c(c1)CN(C1CCC(=O)NC1=O)C2=O` (stereo partly drawn) [Compound I-6, 3-(5-(((1S,2S)-2-(benzyl(methyl)amino)cyclohexyl)(methyl)amino)-1-oxoisoindolin-2-yl)piperidine-2,6-dione], on IKZF2, the inhibition at 10 µM stood at 65% and the DC50 came to 0.043 µM. Besides, the DC50 at IKZF1 is above 50 µM.

`CC(C)CN[C@H]1CCCC[C@@H]1Nc1ccc2c(c1)CN(C1CCC(=O)NC1=O)C2=O` (stereo partly drawn) [Compound I-15, 3-(5-(((1S,2S)-2-(isobutylamino)cyclohexyl)amino)-1-oxoisoindolin-2-yl)piperidine-2,6-dione]: the inhibition at 10 µM on IKZF2 worked out at 60%. Also, the DC50 was 0.094 µM at IKZF2 and above 30 µM on IKZF1.

As for `CN(c1ccc2c(c1)C(=O)N(C1CCC(=O)NC1=O)C2=O)[C@H]1CCCC[C@@H]1NCC1(C(F)(F)F)CC1` (stereo partly drawn) [Compound I-138, 2-(2,6-dioxopiperidin-3-yl)-5-(methyl((1S,2S)-2-(((1-(trifluoromethyl)cyclopropyl)methyl)amino)cyclohexyl)amino)isoindoline-1,3-dione], the inhibition at 10 µM at IKZF2 came to 30%. In addition, the DC50 on IKZF1 was above 30 µM.

`CCN[C@H]1CCCC[C@@H]1N(CC)c1ccc2c(c1)CN(C1CCC(=O)NC1=O)C2=O` (stereo partly drawn) [Compound I-55, 3-(5-(ethyl((1S,2S)-2-(ethylamino)cyclohexyl)amino)-1-oxoisoindolin-2-yl)piperidine-2,6-dione]: the inhibition at 10 µM at IKZF2 is 10%. For the same compound, at IKZF1, the DC50 was above 30 µM.

As to `CN[C@H]1CCC[C@@H]1N(C)c1ccc2c(c1)C(=O)N(C1CCC(=O)NC1=O)C2=O` (stereo partly drawn) [Compound I-128, 2-(2,6-dioxopiperidin-3-yl)-5-(methyl((1S,2S)-2-(methylamino)cyclopentyl)amino) isoindoline-1,3-dione], the inhibition at 10 µM on IKZF2 was 30%. Besides, the DC50 on IKZF2 and at IKZF1 was above 30 µM each time.

With `CCN[C@H]1CCCC[C@@H]1Nc1ccc2c(c1)CN(C1CCC(=O)NC1=O)C2=O` (stereo partly drawn) [Compound I-40, 3-(5-(((1S,2S)-2-(ethylamino)cyclohexyl)amino)-1-oxoisoindolin-2-yl)piperidine-2,6-dione], at IKZF2, the inhibition at 10 µM amounted to 45%. Moreover, the figures for the DC50 at IKZF2 and at IKZF1 were 1.67 µM and above 30 µM, respectively.

On to `CN(c1ccc2c(c1)C(=O)N(C1CCC(=O)NC1=O)C2=O)[C@H]1CCCC[C@@H]1NCc1ccccc1` (stereo partly drawn) [Compound I-133, 5-(((1S,2S)-2-(benzylamino)cyclohexyl)(methyl)amino)-2-(2,6-dioxopiperidin-3-yl)isoindoline-1,3-dione], for which, on IKZF2, the inhibition at 10 µM was found to be 75% and the DC50 turned out to be 0.45 µM. In addition, the DC50 on IKZF1 was above 30 µM.

Values taken from patent EP3820574B1, “3-(5-AMINO-1-OXOISOINDOLIN-2-YL)PIPERIDINE-2,6-DIONE DERIVATIVES AND THEIR USE IN THE TREATMENT OF IKAROS FAMILY ZINC FINGER 2 (IKZF2)-DEPENDENT DISEASES” (Novartis AG, priority 2018, dated 2020).
